Patent publication US5516790A, “Synthesis and application of alkyl-substituted dibenzofurans as antitumorigenic agents” (Texas A&M University System Technology Licensing Office, priority 1994, dated 1996)
Read-outs that look alike come from different tables or passages of the source.

Columns and labels:
female rat uterus = type: in vivo, female Sprague/Dawley rats
Description: TCDD or MCDF was co-administered with a second dose of estradiol and the animals were killed 48-hours later. A second group of animals was similarly treated with corn oil, TCDD, MCDF, or TCDD plus MCDF, all administered in corn oil at 10 ml/kg and terminated 72 hours later.
The animals were terminated by cervical dislocation. Livers were perfused with ice-cold TEDG buffer (10 mM Tris-HCl, 1.5 mM EDTA-4Na, 1 mM dithiothreitol, 10% glycerol (v/v), pH 7.4). Following perfusion in situ, livers were removed, weighed, and homogenized in ice-cold TEDG buffer. Uteri were also removed, weighed, and homogenized in ice-cold buffer. The homogenates were then centrifuged at 800×g […] for 15 minutes and the nuclear pellets were stored at -80° C. The supernatants were further centrifuged at 180,000×g for 1.5 hour. The cytosolic supernatant was also stored at -80° C. Estrogen and progesterone receptor levels were determined within 7 days.

160-kDa protein = type: cell-based, human; conditions: for Protein Secretion, 160-kDa / Secreted 160-kDa protein: 2880 min
Description: (§1) On day 0, the media was removed and the cells were rinsed two times with PBS. […] The cells were allowed to incubate for 48 h. […] After 6 h, the media was removed, 10 μl was counted and the remaining media was used for analysis of secreted proteins.
(§2) The secreted proteins were analyzed by sodium dodecyl sulfate (SDS) polyacrylamide gel electrophoresis; 30 μl of the media was mixed with an equal volume of buffer containing SDS, β-mercaptoethanol, glycerol, Tris and bromophenol blue. The samples were heated for 2 minutes in a boiling water bath and 50 μl of each sample was loaded onto a 1.5 mm thick 12% acrylamide slab gel (containing 0.075% bisacrylamide) with a 3% stacking gel (containing 0.15% bisacrylamide). The gels were run at […] overnight and processed for fluorography (using Enhance: Dupont) and exposed to Kodak X-OMAT film for 10 days at -80° C. The molecular weights of the proteins were estimated by their mobility relative to a set of standard proteins with known molecular weights.
(§3) The incorporation of ^35 S-methionine into the 34-kDa, 52-kDa and 160-kDa proteins was estimated by scanning the films using a Zeineh Soft Laser Scanning Densitometer (model SLR-20/10) from Biomedical Instruments,Inc. The percentage of the area of the scans due to the particular protein was then compared between the experimental and control samples and the results are presented as means ± SD for at least three samples per treatment group.

34-kDa protein = type: cell-based, human; conditions: for Protein Secretion, 34-kDa / Secreted 34-kDa protein: 2880 min
Description: as §1, §2, §3

52-kDa protein = type: cell-based, human
Description: as §1, §2, §3

nuclear ER [1] = assay: Nuclear ER levels in MCF-7 cells; type: cell-based, human; conditions: for nuclear ER levels: TCDD (10 nM), MCDF (100 nM)
Description: MCF-7 cells, obtained from American Type Culture Collection (Rockville, Ma.), were maintained at 37° C. in closed Corning T-25, 75 or 150 cm^2 flasks (Corning Glassworks, Corning, N.Y.) and passaged in logarithmic growth phase.
For the 2,3,7,8-TCDD antiestrogenicity studies, cells were treated 24 hours prior to harvesting with various concentrations of 2,3,7,8-TCDD (0.1 nM to 100 nM 2,3,7,8-TCDD). Interactive effects between 2,3,7,8-TCDD and estradiol were conducted using these same concentrations of 2,3,7,8-TCDD and 10 nM estradiol. […]
MCF-7 cells from a single near confluent T-25 flask were incubated at 37° C. for 0.5 hours prior to harvesting with 10 nM 2,4,6,7-[^3H]-estradiol. The medium was then decanted and the cells were rinsed once with Hanks' balanced salt solution containing 1 mM EDTA. The cells were collected by centrifugation, washed gently in 2 ml of TEDG buffer and homogenized in 300 μl of TEDG buffer containing protease inhibitors [soybean trypsin inhibitor 5 mg/ml (Sigma), leupetin 1 mg/ml (Sigma), and phenylmethylsulfonyl fluoride 1 mg/ml (Sigma) by 40 strokes of a Dounce homogenizer. The homogenate was centrifuged at 800×g for 10 minutes. The crude nuclear pellet was resuspended in 300 μl of TEDGK buffer (10 mM Tris-HCl, 1.5 mM EDTA-4Na, 10 mM dithiothreitol, 10% (v/v) glycerol, 0.8 M KCl, pH 8.5 at 4° C.). The nuclear ER levels were then determined as described below.
The nuclear extract previously obtained was incubated with 10 nM [^3 H]-estradiol plus or minus radioinert diethylstilbestrol for 1 hour at 0-4° C., with resuspension by agitation every 15 minutes. The sample was then centrifuged at 180,000×g for 30 minutes, then 200 μl of the supernatant obtained was layered onto linear 1-20% sucrose gradients prepared in TEDGMK buffer. As before, the gradients were centrifuged at 406,000×g for 2.5 hours in a vertical rotor. Following centrifugation, 30 fractions of […] were collected and the radioactivity in each sample was determined.

nuclear ER [2] = conditions: cited from earlier work
[3] = tested on: MCF-7 human breast cancer cells; conditions: cited from earlier work
estrogen receptor = conditions: cited from earlier work
progesterone receptor = conditions: cited from earlier work
[4] = 17β-estradiol (1 nM) + TCDD 0.0001 nM
[5] = 17β-estradiol (1 nM) + TCDD 0.001 nM
[6] = 17β-estradiol (1 nM) + TCDD 0.01 nM
[7] = 17β-estradiol (1 nM) + TCDD 0.1 nM

## Cc1cc(Cl)cc2c1oc1cc(Cl)cc(Cl)c12 [MCDF, 6-methyl 1,3,8-trichlorodibenzofuran]
Female rat uterus; MCDF alone
  uterine wet weights compared to corn oil treated animals: significantly decreased
Female rat uterus; co-treated animals
  estradiol induced increase in uterine wet weight: partially inhibited
Female rat uterus; cotreatment with E-2
  Uterine Wet Weight: 0.255 ± 0.031 % body wt
Female rat uterus; rat, in vivo
  Uterine Wet Weight: 0.090 ± 0.113 % body wt
160-kDa protein; 17β-estradiol + MCDF
  Protein Secretion, 160-kDa: 76 % of Control
160-kDa protein; MCDF
  17β-estradiol-induced secretion of the 160-kDa protein: inhibits
160-kDa protein; MCDF alone (100 nM)
  Protein Secretion, 160-kDa: 72 % of Control
34-kDa protein; 17β-estradiol + MCDF
  Protein Secretion, 34-kDa: 78 % of Control
34-kDa protein; MCDF
  17β-estradiol-induced secretion of the 34-kDa protein: inhibits
34-kDa protein; MCDF alone (100 nM)
  Protein Secretion, 34-kDa: 80 % of Control
52-kDa protein; MCDF
  17β-estradiol-induced secretion of the 52-kDa protein: inhibits
Nuclear ER [1]; 2,3,7,8-TCDD (10 nM) + MCDF (15 μM)
  ERn: 147.5(9.6) fmol/mg protein
Nuclear ER [1]; 2,3,7,8-TCDD (10 nM) + MCDF (50 μM)
  ERn: 136.0(14.7) fmol/mg protein
Nuclear ER [1]; 2,3,7,8-TCDD (10 nM) + MCDF (75 μM)
  ERn: 133.1(10.4) fmol/mg protein
Nuclear ER [1]; 2,3,7,8-TCDD (10 nM) + MCDF (100 μM)
  ERn: 123.1(7.1) fmol/mg protein
Nuclear ER [1]; 2,3,7,8-TCDD (10 nM) + MCDF (150 μM)
  ERn: 129.3(2.9) fmol/mg protein
Nuclear ER [1]; 2,3,7,8-TCDD (25 nM) + MCDF (15 μM)
  ERn: 146.9(9.6) fmol/mg protein
Nuclear ER [1]; 2,3,7,8-TCDD (25 nM) + MCDF (50 μM)
  ERn: 85.5(16.5) fmol/mg protein
Nuclear ER [1]; 2,3,7,8-TCDD (25 nM) + MCDF (75 μM)
  ERn: 91.3(9.7) fmol/mg protein
Nuclear ER [1]; 2,3,7,8-TCDD (25 nM) + MCDF (100 μM)
  ERn: 100.5 (10.4) fmol/mg protein
Nuclear ER [1]; 2,3,7,8-TCDD (25 nM) + MCDF (150 μM)
  ERn: 108.1(18.1) fmol/mg protein
Nuclear ER [1]; MCDF
  ERn levels in MCF-7 cells: significantly decreased
Nuclear ER [1]; MCDF alone (15 μM)
  ERn: 207.5 (6.6) fmol/mg protein
Nuclear ER [1]; MCDF alone (50 μM)
  ERn: 171.6 (13.7) fmol/mg protein
Nuclear ER [1]; MCDF alone (100 μM)
  ERn: 135.8 (4.5) fmol/mg protein
Nuclear ER [1]; MCDF alone (150 μM)
  ERn: 114.2 (7.9) fmol/mg protein
Nuclear ER [1]; MCDF plus 2,3,7,8-TCDD
  ERn levels, combined treatment vs either 2,3,7,8-TCDD or MCDF: not significantly different
  combined effects on ERn levels in MCF-7 cells: clearly not additive
Nuclear ER [1]
  nuclear ER levels: decrease in nuclear ER levels
Nuclear ER [1]; alone (75 μM)
  ERn: 141.8 (13.6) fmol/mg protein
Nuclear ER [1]; estradiol (10 nM) + 2,3,7,8-TCDD (10 nM) plus MCDF (15 nM)
  ERn: 133.1 (14.3) fmol/mg protein
Nuclear ER [1]; estradiol (10 nM) + 2,3,7,8-TCDD (10 nM) plus MCDF (50 μM)
  ERn: 122.3 (5.5) fmol/mg protein
Nuclear ER [1]; estradiol (10 nM) + 2,3,7,8-TCDD (10 nM) plus MCDF (100 μM)
  ERn: 125.5 (9.7) fmol/mg protein
Nuclear ER [1]; estradiol (10 nM) + 2,3,7,8-TCDD (25 nM) plus MCDF (15 μM)
  ERn: 132.6 (2.1) fmol/mg protein
Nuclear ER [1]; estradiol (10 nM) + 2,3,7,8-TCDD (25 nM) plus MCDF (50 μM)
  ERn: 130.5 (5.3) fmol/mg protein
Nuclear ER [1]; estradiol (10 nM) + 2,3,7,8-TCDD (25 μM) plus MCDF (100 μM)
  ERn: 123.8 (8.3) fmol/mg protein
Nuclear ER [1]; estradiol (10 nM) + MCDF (15 μM)
  ERn: 113.4 (3.9) fmol/mg protein
Nuclear ER [1]; estradiol (10 nM) + MCDF (50 μM)
  ERn: 103.4 (17.6) fmol/mg protein
Nuclear ER [1]; estradiol (10 nM) + MCDF (100 μM)
  ERn: 106.4 (7.9) fmol/mg protein
Nuclear ER [2]
  17β-estradiol-induced accumulation of nuclear ER levels in MCF-7 cells: inhibits
[3]; Biegel, 1990
  17β-estradiol-induced growth of MCF-7 cells: inhibits
Estrogen receptor; rat, in vivo
  upregulation of uterine nuclear and cytosolic estrogen receptor levels by 17β-estradiol: inhibits
  uterine and hepatic cytosolic and nuclear estrogen receptor levels: dose response decrease
Progesterone receptor; rat, in vivo
  upregulation of uterine nuclear and cytosolic progesterone receptor levels by 17β-estradiol: inhibits
  uterine and hepatic cytosolic and nuclear progesterone receptor levels: dose response decrease

## Clc1cc2c(cc1Cl)Oc1cc(Cl)c(Cl)cc1O2 [TCDD, 2,3,7,8-tetrachloridibenzo-p-dioxin]
Female rat uterus; compound alone: TCDD 0.256 or MCDF 100 μmol/kg, or estradiol
  Uterine Wet Weight: 0.086 ± 0.011 % body wt
Female rat uterus; cotreatment with E-2
  Uterine Wet Weight: 0.245 ± 0.026 % body wt
160-kDa protein; 10 nM TCDD alone
  secretion of the 160-kDa protein: did not significantly affect
160-kDa protein; [4]
  Secreted 160-kDa protein: 321 ± 29.0% of the values for control
160-kDa protein; [5]
  Secreted 160-kDa protein: 167 ± 31.3% of the values for control
160-kDa protein; [6]
  Secreted 160-kDa protein: 127 ± 21.0% of the values for control
160-kDa protein; [7]
  Secreted 160-kDa protein: 94.3 ± 5.23% of the values for control
160-kDa protein; TCDD alone, 0.0001 nM
  Secreted 160-kDa protein: 97.4 ± 2.73% of the values for control
160-kDa protein; TCDD alone, 0.001 nM
  Secreted 160-kDa protein: 94.3 ± 3.00% of the values for control
160-kDa protein; TCDD alone, 0.01 nM
  Secreted 160-kDa protein: 90.4 ± 17.2% of the values for control
160-kDa protein; TCDD alone, 0.1 nM
  Secreted 160-kDa protein: 92.8 ± 5.16% of the values for control
160-kDa protein; TCDD plus 17β-estradiol
  hormone-induced secretion of the 160-kDa protein: significantly inhibited
34-kDa protein; 10 nM TCDD alone
  secretion of the 34-kDa protein: did not significantly affect
34-kDa protein; [4]
  Secreted 34-kDa protein: 255 ± 37.8% of the values for control
34-kDa protein; [5]
  Secreted 34-kDa protein: 151 ± 20.7% of the values for control
34-kDa protein; [6]
  Secreted 34-kDa protein: 94.2 ± 24.0% of the values for control
34-kDa protein; [7]
  Secreted 34-kDa protein: 94.9 ± 11.4% of the values for control
34-kDa protein; TCDD alone, 0.0001 nM
  Secreted 34-kDa protein: 86.5 ± 8.56% of the values for control
34-kDa protein; TCDD alone, 0.001 nM
  Secreted 34-kDa protein: 95.2 ± 12.8% of the values for control
34-kDa protein; TCDD alone, 0.01 nM
  Secreted 34-kDa protein: 85.7 ± 11.9% of the values for control
34-kDa protein; TCDD alone, 0.1 nM
  Secreted 34-kDa protein: 94.5 ± 133% of the values for control
34-kDa protein; TCDD plus 17β-estradiol
  hormone-induced secretion of the 34-kDa protein: significantly inhibited
52-kDa protein; 10 nM TCDD alone
  secretion of the 52-kDa protein: did not significantly affect
52-kDa protein; TCDD plus 17β-estradiol
  hormone-induced secretion of the 52-kDa protein: significantly inhibited
Nuclear ER [1]
  nuclear ER levels: decrease in nuclear ER levels
Nuclear ER [2]; concentration-dependent, antibodies to human ER
  immunoreactive ER protein: decrease in immunoreactive ER protein
Nuclear ER [2]; cotreatment 10 nM TCDD plus [3H]-17β-estradiol
  levels of occupied nuclear ER complex: did not affect
Nuclear ER [2]; pretreatment with TCDD 6 or 12 hours prior to radiolabeled hormone
  occupied nuclear ER levels: significant downregulation
[3]; TCDD
  17β-estradiol-induced growth of MCF-7 human breast cancer cells: inhibits
Estrogen receptor; female rat
  constitutive and 17β-estradiol induced uterine and hepatic estrogen receptor levels: decreased
Progesterone receptor; female rat
  constitutive and 17β-estradiol induced uterine and hepatic progesterone receptor levels: decreased
